Laboratory results as given in patent US7776848B2, “Spirocyclic cyclohexane compounds” (Gruenenthal GmbH, priority 2004, dated 2010).
Where a name gives a salt, the structure may show the parent alone.

Assays:
human μ-opiate receptor = biological target: T1, human μ-opiate receptor (Homo sapiens, UniProt P35372); assay: Measurement of μ binding ([3H]-naloxone displacement, SPA, CHO-K1 membrane preparation); settings: 1.5 h; % inhibition of specific [3H]-naloxone binding at 1 μM test substance
T1 construct: purchased NEN, Zaventem, Belgium RB-HOM; host or cells: CHO-K1 cells (membrane preparation)
T1 sequence (P35372 whole entry): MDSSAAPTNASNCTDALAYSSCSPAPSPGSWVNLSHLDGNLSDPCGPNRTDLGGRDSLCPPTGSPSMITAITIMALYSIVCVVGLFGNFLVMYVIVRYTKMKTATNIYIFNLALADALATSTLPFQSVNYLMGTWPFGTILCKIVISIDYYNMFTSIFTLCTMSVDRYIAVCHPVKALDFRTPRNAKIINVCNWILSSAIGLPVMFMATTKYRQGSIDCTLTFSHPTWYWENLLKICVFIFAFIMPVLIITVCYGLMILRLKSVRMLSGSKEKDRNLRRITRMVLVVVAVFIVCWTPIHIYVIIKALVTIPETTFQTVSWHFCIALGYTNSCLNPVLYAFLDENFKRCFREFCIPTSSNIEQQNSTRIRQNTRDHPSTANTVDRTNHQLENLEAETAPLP
Procedure: c) Measurement of μ Binding
The receptor affinity for the human μ-opiate receptor was determined in a homogeneous batch on microtitre plates. To that end, serial dilutions of the substituted spirocyclic cyclohexane derivative to be tested were incubated for 90 minutes at room temperature with a receptor membrane preparation (15-40 μg of protein per 250 μl of incubation batch) of CHO-K1 cells, which express the human μ-opiate receptor (RB-HOM receptor membrane preparation from NEN, Zaventem, Belgium), in the presence of 1 nmol/l of the radioactive ligand [^3H]-naloxone (NET719, NEN, Zaventem, Belgium) and 1 mg of WGA-SPA beads (wheatgerm agglutinin SPA beads from Amersham/Pharmacia, Freiburg, Germany) in a total volume of 250 μl. The incubation buffer used was 50 mmol/l of Tris-HCl supplemented with 0.05 wt. % sodium azide and with 0.06 wt. % bovine serum albumin. In order to determine non-specific binding, 25 μmol/l of naloxone were additionally added. When the ninety-minute incubation time was complete, the microtitre plates were centrifuged off for 20 minutes at 1000 g and the radioactivity was measured in a β-counter (Microbeta-Trilux, PerkinElmer Wallac, Freiburg, Germany). The percentage displacement of the radioactive ligand from its binding to the human μ-opiate receptor at a concentration of the test substances of 1 μmol/l was determined and stated as the percentage inhibition (% inhibition) of specific binding. In some cases, on the basis of the percentage displacement by different concentrations of the compounds of formula I to be tested, IC50 inhibitory concentrations, which effect 50% displacement of the radioactive ligand, were calculated. Ki values for the test substances were obtained by conversion by means of the Cheng-Prusoff equation.

[1] = biological target: T2, 5HT uptake (serotonin reuptake), synaptosomes from hypothalamus of male rat brains (Rattus norvegicus, UniProt P31652); assay: Serotonin reuptake inhibition (5HT uptake inhibition) in rat brain synaptosomes; type: biochemical
T2 construct: synaptosomes are freshly isolated from areas of rat brain; from tissue; host or cells: synaptosomes (P2 fraction) from hypothalamus of male rat brains
T2 sequence (P31652 whole entry): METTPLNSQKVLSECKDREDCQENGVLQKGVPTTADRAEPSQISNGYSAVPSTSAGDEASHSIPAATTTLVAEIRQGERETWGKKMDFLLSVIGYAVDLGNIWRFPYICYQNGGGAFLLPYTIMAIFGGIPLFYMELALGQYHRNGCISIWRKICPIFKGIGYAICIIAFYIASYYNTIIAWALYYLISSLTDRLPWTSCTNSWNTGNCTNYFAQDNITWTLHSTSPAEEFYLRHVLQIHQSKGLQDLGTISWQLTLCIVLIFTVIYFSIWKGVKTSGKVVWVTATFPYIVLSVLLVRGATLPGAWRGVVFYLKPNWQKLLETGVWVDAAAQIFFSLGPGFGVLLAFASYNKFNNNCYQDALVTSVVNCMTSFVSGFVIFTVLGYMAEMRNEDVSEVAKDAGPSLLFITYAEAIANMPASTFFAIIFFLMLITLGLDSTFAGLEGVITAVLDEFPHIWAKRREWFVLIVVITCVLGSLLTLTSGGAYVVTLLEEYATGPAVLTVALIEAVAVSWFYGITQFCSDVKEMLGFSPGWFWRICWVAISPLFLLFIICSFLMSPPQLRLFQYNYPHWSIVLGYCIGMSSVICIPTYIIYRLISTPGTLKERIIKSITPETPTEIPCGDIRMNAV
Procedure: Biological Testing a) Studies of Serotonin Reuptake Inhibition (5HT Uptake Inhibition)
In order to be able to carry out these in vitro studies, synaptosomes are freshly isolated from areas of rat brain. A so-called “P2” fraction is used in each case, which is prepared according to the procedure of Gray and Whittaker (E. G. Gray and V. P. Whittaker (1962) J. Anat. 76, 79-88). For 5HT uptake, these vesicular particles are isolated from the hypothalamus of male rat brains. A detailed description of the method can be found in the literature (M. Ch. Frink, H.-H. Hennies, W. Englberger, M. Haurand and B. Wilffert (1996) Arzneim.-Forsch./Drug Res. 46 (III), 11, 1029-1036).

[2] = biological target: T3, NA uptake (noradrenaline reuptake), synaptosomes from hypothalamus of male rat brains (Rattus norvegicus, UniProt Q63380); assay: Noradrenaline reuptake inhibition (NA uptake inhibition) in rat brain synaptosomes; type: biochemical
T3 construct: synaptosomes are freshly isolated from areas of rat brain; from tissue; host or cells: synaptosomes (P2 fraction) from hypothalamus of male rat brains
T3 sequence (Q63380 1-617): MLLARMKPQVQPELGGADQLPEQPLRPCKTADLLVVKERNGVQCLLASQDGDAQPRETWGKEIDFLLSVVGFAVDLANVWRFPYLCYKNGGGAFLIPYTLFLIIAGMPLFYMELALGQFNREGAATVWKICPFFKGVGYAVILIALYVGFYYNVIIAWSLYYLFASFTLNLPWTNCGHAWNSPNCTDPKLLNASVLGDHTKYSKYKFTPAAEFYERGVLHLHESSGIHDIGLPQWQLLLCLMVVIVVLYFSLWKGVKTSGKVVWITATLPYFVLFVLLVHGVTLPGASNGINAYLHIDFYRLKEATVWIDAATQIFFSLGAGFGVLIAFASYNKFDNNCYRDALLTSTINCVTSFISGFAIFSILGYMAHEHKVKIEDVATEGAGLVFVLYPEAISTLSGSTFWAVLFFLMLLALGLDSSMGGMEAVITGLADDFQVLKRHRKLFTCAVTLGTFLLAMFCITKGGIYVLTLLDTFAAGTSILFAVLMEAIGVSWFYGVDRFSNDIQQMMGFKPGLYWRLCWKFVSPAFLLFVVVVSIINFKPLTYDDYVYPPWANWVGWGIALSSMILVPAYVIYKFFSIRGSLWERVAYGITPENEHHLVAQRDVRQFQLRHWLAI
Procedure: b) Studies of Noradrenaline Reuptake Inhibition (NA Uptake Inhibition)
In order to be able to carry out these in vitro studies, synaptosomes are freshly isolated from areas of rat brain. A so-called “P2” fraction is used in each case, which is prepared according to the procedure of Gray and Whittaker (E. G. Gray and V. P. Whittaker (1962) J. Anat. 76, 79-88). For NA uptake, these vesicular particles are isolated from the hypothalamus of male rat brains. A detailed description of the method can be found in the literature (M. Ch. Frink, H.-H. Hennies, W. Englberger, M. Haurand and B. Wilffert (1996) Arzneim.-Forsch./Drug Res. 46 (III), 11, 1029-1036).

| SMILES | inhibition at 1 µM (human μ-opiate receptor) | inhibition at 10 µM [1] | inhibition at 10 µM [2] |
| --- | --- | --- | --- |
| CN(C)CC1CC2(CCC1(O)c1cccc(F)c1)OCCc1c2oc2ccccc12 (stereo not shown) [Example 8, 1,1-(2-(Dimethylaminomethyl)-3-hydroxy-3-(3-fluorophenyl)-pentamethylene)-1,3,4,9-tetrahydro-pyrano[3,4-b]benzofuran citrate] | 73% | 88% | 66% |
| COc1cccc(C2(O)CCC3(CC2CN(C)C)c2[nH]c4ccccc4c2CCN3C(C)=O)c1 (stereo not shown) [Example 2, 1,1-(2-(Dimethylaminomethyl)-3-hydroxy-3-(3-methoxyphenyl)pentamethylene)-2-acetyl-3,4-dihydro-1H-2,9-diazafluorene hydrochloride] | 65% |  |  |
| Cc1ccccc1C1(O)CCC2(CC1CN(C)C)OCCc1c2oc2ccccc12 (stereo not shown) [Example 12, 1,1-(2-(Dimethylaminomethyl)-3-hydroxy-3-(2-methylphenyl)-pentamethylene)-1,3,4,9-tetrahydro-pyrano[3,4-b]benzofuran citrate] | 56% | 68% | 41% |
| CN(C)CC1CC2(CCC1(O)c1cccc(F)c1)OCCc1c2[nH]c2ccccc12 (stereo not shown) [Example 27, 1,1-(2-(Dimethylaminomethyl)-3-hydroxy-3-(3-fluorophenyl)-pentamethylene)-1,3,4,9-tetrahydro-pyrano[3,4-b]indole hydrochloride] | 64% | 83% |  |
| CSc1ccc(C2(O)CCC3(CC2CN(C)C)NCCc2c3[nH]c3cc(F)ccc23)cc1 (stereo not shown) [Example 34, 1,1-(2-(Dimethylaminomethyl)-3-hydroxy-3-(4-methylthiophenyl)-pentamethylene)-7-fluoro-3,4-dihydro-1H-2,9-diazafluorene citrate] | 54% | 65% | 57% |
| COc1cccc(C2(O)CCC3(CC2CN(C)C)NCCc2c3[nH]c3ccccc23)c1 (stereo not shown) [Example 1, 1,1-(2-(Dimethylaminomethyl)-3-hydroxy-3-(3-methoxyphenyl)pentamethylene)-3,4-dihydro-1H-2,9-diazafluorene dihydrochloride] | 40% | 44% | 43% |
| CN(C)CC1CC2(CCC1(O)c1ccc(C(F)(F)F)cc1)NCCc1c2[nH]c2ccccc12 (stereo not shown) [Example 15, 1,1-(2-(Dimethylaminomethyl)-3-hydroxy-3-(4-trifluoromethylphenyl)-pentamethylene)-3,4-dihydro-1H-2,9-diazafluorene dicitrate] |  | 83% | 76% |
| CN(C)CC1CC2(CCC1(O)c1ccccc1)OCCc1c2oc2ccccc12 (stereo not shown) [Example 5, 1,1-(2-(Dimethylaminomethyl)-3-hydroxy-3-phenyl-pentamethylene)-1,3,4,9-tetrahydro-pyrano[3,4-b]benzofuran citrate] | 58% | 84% | 51% |
| Cc1ccccc1C1(O)CCC2(CC1CN(C)C)NCCc1c2[nH]c2cc(F)ccc12 (stereo not shown) [Example 32, 1,1-(2-(Dimethylaminomethyl)-3-hydroxy-3-(2-methylphenyl)-pentamethylene)-7-fluoro-3,4-dihydro-1H-2,9-diazafluorene citrate] |  | 75% | 38% |
| CN(C)CC1CC2(CCC1(O)c1ccccc1)NCCc1c2[nH]c2ccccc12 (stereo not shown) [Example 28, 1,1-(2-(Dimethylaminomethyl)-3-hydroxy-3-phenyl-pentamethylene)-3,4-dihydro-1H-2,9-diazafluorene citrate] | 57% |  |  |
| CN(C)CC1CC2(CCC1(O)c1ccccc1)OCCc1c2[nH]c2ccccc12 (stereo not shown) [Example 4, 1,1-(2-(Dimethylaminomethyl)-3-hydroxy-3-phenyl-pentamethylene)-1,3,4,9-tetrahydro-pyrano[3,4-b]indole sesquicitrate] | 74% | 84% |  |
